Results as given in BindingDB's records for doi:10.1021/jm00026a002 (Upjohn, 1995).

Molecular target: T1, Dimer of Gag-Pol polyprotein [489-587] (Human immunodeficiency virus 1, UniProt P12497)
T1 construct: 489-587
Assay: Protease Inhibition Assay
Conditions: pH 5; 22 °C
Description: HIV-1 protease was purified and refolded from E. coli inclusion bodies. […] In the presence of HIV-l protease, the substrate is rapidly cleaved into two parts. The biotinylated amino terminal fragment binds to the avidin beads while the FITC-containing carboxy1 terminal fragment is removed through the membrane. […] The bound fluorescence is obtained by processing on an IDEXX Screen Machine. Determination of Ki values with this assay requires analysis under conditions in which substrate concentration resides substantially below Km and the inhibitor concentrations greatly exceeds the Ki value and the enzyme concentration.

Work on `O=c1oc2c(c(O)c1[C@H](c1cccc(NS(=O)(=O)c3ccccc3)c1)C1CC1)CCCCCC2` [N-{3-[(S)-cyclopropyl({4-hydroxy-2-oxo-2H,5H,6H,7H,8H,9H,10H-cycloocta[b]pyran-3-yl})methyl]phenyl}benzenesulfonamide] yielded a Ki of 3 nM.
